From patent US10544146B2, “Bicyclic compounds and their use as antibacterial agents and β-lactamase inhibitors” (priority 2011, dated 2020)

Key:
Format in all cases: cell-based
E. coli JMI 2665 = assay: MIC, antibacterial and synergistic activity; conditions: substance alone
E. coli JMI 10768 = assay: MIC, antibacterial and synergistic activity; conditions: substance alone
E. coli JMI 11103 = assay: MIC, antibacterial and synergistic activity; conditions: substance alone
E. coli JMI 10767 = assay: MIC, antibacterial and synergistic activity; conditions: substance alone
Method: (§1) In the Tables 10-12, compounds of the present invention were tested in combination with various antibiotics against metallo β-lactamase producing bacteria.

P. aerug JMI 149 = assay: MIC, antibacterial and synergistic activity; conditions: substance alone
Method: as §1

A. baumanii JMI 2659 = assay: MIC, antibacterial and synergistic activity; conditions: substance alone
Method: as §1

E. cloacae JMI 36 = assay: MIC, antibacterial and synergistic activity; conditions: substance alone
Method: as §1

E. coli JMI 2671 = assay: MIC, antibacterial and synergistic activity; conditions: substance alone
Method: as §1

E. coli ATCC 25922 = assay: MIC, antibacterial and synergistic activity
Method: as §1

K. pneumo JMI 2697 = assay: MIC, antibacterial and synergistic activity; conditions: substance alone
Method: as §1

E. coli JMI 2692 = assay: MIC, antibacterial and synergistic activity; conditions: substance alone
Method: as §1

K. pneumo JMI 2693 = assay: MIC, antibacterial and synergistic activity; conditions: substance alone
Method: as §1

K. pneumo JMI 2699 = assay: MIC, antibacterial and synergistic activity; conditions: substance alone
Method: as §1

E. coli JMI 4103 = assay: MIC, antibacterial and synergistic activity; conditions: substance alone
K. pneumo JMI 4109 = assay: MIC, antibacterial and synergistic activity; conditions: substance alone
[1] = tested on: metallo β-lactamase producing bacteria; assay: MIC in combination with various antibiotics against metallo β-lactamase producing bacteria (Tables 10-12); conditions: substance alone
Method: as §1

K. pneumo JMI 2674 = assay: MIC, antibacterial and synergistic activity; conditions: substance alone
K. pneumo JMI 4088 = assay: MIC, antibacterial and synergistic activity; conditions: substance alone
E. coli JMI 10770 = assay: MIC, antibacterial and synergistic activity; conditions: substance alone
K. pneumo JMI 4106 = assay: MIC, antibacterial and synergistic activity; conditions: substance alone
E. coli JMI 4080 = assay: MIC, antibacterial and synergistic activity; conditions: substance alone
K. pneumo JMI 2673 = assay: MIC, antibacterial and synergistic activity; conditions: substance alone
P. aerug JMI 2686 = assay: MIC, antibacterial and synergistic activity; conditions: substance alone
K. pneumo JMI 2681 = assay: MIC, antibacterial and synergistic activity; conditions: substance alone

Measured: MIC alone

CC(C)(O/N=C(\C(=O)N[C@@H]1C(=O)N2C(C(=O)[O-])=C(C[n+]3ccccc3)CS[C@H]12)c1csc(N)n1)C(=O)O [Ceftazidime, ceftazidime]
0.25 µg/mL: E. coli ATCC 25922; E. coli ATCC 25922, enzyme Wt; substance alone | E. coli ATCC 25922; E. coli ATCC 25922; enzyme Wt; substance alone
≤1 µg/mL: E. coli JMI 10767; E. coli JMI 10767, Wt | E. coli JMI 10767; E. coli JMI 10767, enzyme Wt
128 µg/mL: E. cloacae JMI 36; E. cloacae JMI 36, P99 | E. cloacae JMI 36; E. cloacae JMI 36, enzyme P99 | [1]; Enterobacter cloacae isolate 1068, VIM-2 | [1]; Klebsiella oxytoca isolate 31141, VIM-23 | [1]; Serratia marcescens isolate 36098, IMP-19
32 µg/mL: E. coli JMI 11103; E. coli JMI 11103, CTX-M15 (Intermediate ESBL) | E. coli JMI 11103; E. coli JMI 11103, enzyme CTX-M15 (Intermediate ESBL) | [1]; Enterobacter cloacae isolate 1874, IMP-21 | K. pneumo JMI 2673; K. pneumo JMI 2673, CTX-M14 (ESBL) | K. pneumo JMI 2673; K. pneumo JMI 2673, enzyme CTX-M14 (ESBL)
>512 µg/mL: K. pneumo JMI 2697; K. pneumo JMI 2697, IMP-4 (Cpase) | K. pneumo JMI 2697; K. pneumo JMI 2697, enzyme IMP-4 (Cpase) | E. coli JMI 2692; E. coli JMI 2692, NDM-1, TEM-1, CTX-M-15 | E. coli JMI 2692; E. coli JMI 2692, enzyme NDM-1, TEM-1, CTX-M-15 | K. pneumo JMI 2693; K. pneumo JMI 2693, NDM-1 (Cpase) | K. pneumo JMI 2693; K. pneumo JMI 2693, enzyme NDM-1 (Cpase) | K. pneumo JMI 2699; K. pneumo JMI 2699, VIM-1, CTX-M3 | K. pneumo JMI 2699; K. pneumo JMI 2699, enzyme VIM-1, CTX-M3 | E. coli JMI 4103; E. coli JMI 4103, KPC-2, Tem-1, CMY-Type | E. coli JMI 4103; E. coli JMI 4103, enzyme KPC-2, Tem-1, CMY-Type | K. pneumo JMI 4088; K. pneumo JMI 4088, KPC-3 (Cpase) | K. pneumo JMI 4088; K. pneumo JMI 4088, enzyme KPC-3 (Cpase) | K. pneumo JMI 4106; K. pneumo JMI 4106, KPC-3, TEM-1, SHV-12, SHV-141 | K. pneumo JMI 4106; K. pneumo JMI 4106, enzyme KPC-3, TEM-1, SHV-12, SHV-141
512 µg/mL: A. baumanii JMI 2659; A. baumanii JMI 2659, Ges-14 (Cpase) | A. baumanii JMI 2659; A. baumanii JMI 2659, enzyme Ges-14 (Cpase) | K. pneumo JMI 2674; K. pneumo JMI 2674, CTX-M15 (ESBL) | K. pneumo JMI 2674; K. pneumo JMI 2674, enzyme CTX-M15 (ESBL) | P. aerug JMI 2686; P. aerug JMI 2686, KPC-2 (Cpase) | P. aerug JMI 2686; P. aerug JMI 2686, enzyme KPC-2 (Cpase) | K. pneumo JMI 2681; K. pneumo JMI 2681, Oxa-48 (Cpase) | K. pneumo JMI 2681; K. pneumo JMI 2681, enzyme Oxa-48 (Cpase)
64 µg/mL: E. coli JMI 2671; E. coli JMI 2671, VIM-19 (Cpase) | E. coli JMI 2671; E. coli JMI 2671, enzyme VIM-19 (Cpase) | [1]; Enterobacter cloacae isolate 1280, VIM-5 | [1]; Serratia marcescens isolate 35, IMP-4 | E. coli JMI 10770; E. coli JMI 10770, CTX-M15 (Hyper ESBL) | E. coli JMI 10770; E. coli JMI 10770, enzyme CTX-M15 (Hyper ESBL) | E. coli JMI 4080; E. coli JMI 4080, Tem-10 | E. coli JMI 4080; E. coli JMI 4080, enzyme Tem-10
256 µg/mL: P. aerug JMI 149; P. aerug JMI 149, Bla+++D+ | P. aerug JMI 149; P. aerug JMI 149, enzyme Bla+++D+ | [1]; Enterobacter aerogenes isolate 47683, VIM-12 | [1]; Enterobacter cloacae isolate 4, VIM-6 | [1]; Escherichia coli isolate 13, IMP-1
>256 µg/mL: [1]; Citrobacter freundii isolate 49469, NDM-1 | [1]; Enterobacter aerogenes isolate 8397, VIM-1 | [1]; Enterobacter cloacae isolate 10, IMP-26 | [1]; Enterobacter cloacae isolate 25, IMP-4 | [1]; Enterobacter cloacae isolate 1471, VIM-1 | [1]; Enterobacter cloacae isolate 3686, IMP-1 | [1]; Enterobacter cloacae isolate 53477, NDM-1 | [1]; Escherichia coli isolate 17, NDM-1 | [1]; Escherichia coli isolate 49, NDM-1 | [1]; Escherichia coli isolate 53749, NDM-1 | [1]; Klebsiella oxytoca isolate 24825, IMP-26 | [1]; Klebsiella pneumoniae isolate 16, VIM-5 | [1]; Klebsiella pneumoniae isolate 38, NDM-1 | [1]; Providencia stuartii isolate 26582, VIM-1
8 µg/mL: E. coli JMI 2665; E. coli JMI 2665, CMY-2 (Plasmid Cpase) | E. coli JMI 2665; E. coli JMI 2665, enzyme CMY-2 (Plasmid Cpase) | E. coli JMI 10768; E. coli JMI 10768, CTX-M15 (Weak ESBL) | E. coli JMI 10768; E. coli JMI 10768, enzyme CTX-M15 (Weak ESBL) | K. pneumo JMI 4109; K. pneumo JMI 4109, SHV-1, SHV-12 | K. pneumo JMI 4109; K. pneumo JMI 4109, enzyme SHV-1, SHV-12
